# Measured values as given in US9175077B2, “Nucleic acids encoding biologically active polypeptides derived from a novel early stage pregnancy factor designated maternin (MA)” (NOBEL BIOSCIENCES LLC, priority 1999, dated 2015).
# Columns and labels:
# hCG receptor = biological target: T1, hCG receptor (Homo sapiens, UniProt P22888); assay: hCG receptor binding
# T1 construct: host or cells: unspecified cells
# Text: In this regard, unusual β-hCG gene transcripts have been known for several years,^207 and as noted above, among the several related heterodimeric glycoprotein hormones, only β-hCG has multiple genes.
# [1] = test system: human bone marrow stem cells; assay: Engraftment of ex vivo expanded hematopoietic progenitor cells in SCID mice
# Text: The inventors also investigated the effect of MA on engraftment of human bone marrow stem cells [CD34^+, CD38″ cells, long term cultures after 4 mos, and stromal free cultures] ex vivo expanded hematopoietic progenitor cells in Rats irradiated [Sprague DAwley, 450 Rad] and immunodeficient mice [SCID or BNX-XID mice].
# Measurement of short-term hematopoietic reconstitution kinetics and long term repopulating ability. Just prior to implantation, SCID, BNX-XID-immunodeficient mice and Sprague Dawley rats were exposed to 450 rad total body γ-irradiation. […] But the SCID and BNX-XID immunodeficient mice were repopulated by the cultured, treated human cells.
# human tumor cells = assay type: cell-based
# [2] = test system: B16 melanoma and Lewis lung (LL) carcinoma; assay: Metastatic B16 melanoma and Lewis lung carcinoma in C57/BL mice; assay type: in vivo; settings: MAS1 or MAS2 0.1 ug or 1.0 ug
# Experimental: (§1) B16 melanoma and Lewis lung (LL) carcinoma cells were first shown to be susceptible to the pro-apoptotic effects of MA (FIG. 6, Panels C and D) at the same dose range used with cultured human tumor cells. The tumor cells grown in standard culture conditions were used to generate metastatic cancers in pathogen-free 6-8 week old C57/BL mice (Charles River). In one set of experiments, the animals were treated with MAS1 or MAS2 at two doses, 0.1 ug or 1.0 ug either in a pre-treatment protocol (two subcutaneous inoculations 24 and 48 hrs before transplanting the tumor cells).
# SIVMAC 251 = assay: SIV infection of rhesus macaque PBMCs (p27); assay type: cell-based
# Experimental: One hour later the various polypeptides were added once.
# B16 melanoma = assay: Pro-apoptotic effect on cultured B16 melanoma cells; assay type: cell-based, mouse; settings: same dose range as cultured human tumor cells
# Experimental: as §1
# T1 sequence (P22888 27-699): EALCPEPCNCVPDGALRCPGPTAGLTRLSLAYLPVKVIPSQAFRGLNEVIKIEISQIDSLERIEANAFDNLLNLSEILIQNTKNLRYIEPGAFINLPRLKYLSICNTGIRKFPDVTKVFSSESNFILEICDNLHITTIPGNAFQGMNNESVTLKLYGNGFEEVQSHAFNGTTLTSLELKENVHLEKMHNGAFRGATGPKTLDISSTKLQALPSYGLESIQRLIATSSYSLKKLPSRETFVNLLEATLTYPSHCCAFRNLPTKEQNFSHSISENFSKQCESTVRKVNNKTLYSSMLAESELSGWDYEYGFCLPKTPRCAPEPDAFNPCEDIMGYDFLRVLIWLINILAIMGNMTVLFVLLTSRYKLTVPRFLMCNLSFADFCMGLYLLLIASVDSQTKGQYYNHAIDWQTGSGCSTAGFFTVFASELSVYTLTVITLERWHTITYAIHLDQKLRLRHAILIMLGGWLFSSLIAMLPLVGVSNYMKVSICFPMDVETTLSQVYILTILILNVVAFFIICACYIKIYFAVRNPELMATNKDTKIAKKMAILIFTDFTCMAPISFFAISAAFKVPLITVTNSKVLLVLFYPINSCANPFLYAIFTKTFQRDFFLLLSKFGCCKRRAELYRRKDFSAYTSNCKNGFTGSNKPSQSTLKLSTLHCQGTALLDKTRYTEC
sequence,measurement,setting,value
VVCNYRDVRFESIRLPGCPRGVNPVVSYAVALSCQ [MA],binding to the hCG receptor,hCG receptor,does not bind
same,CD4,[1],2%
same,CD14,[1],2%
same,CD34,[1],38%
same,effect on HTLV-I induced adult T-cell leukemia,human tumor cells,no effect
same,effect on some β-cell lymphomas,human tumor cells,no effect
same,pro-apoptotic effect on neoplastic cells in vivo,[2],potent pro-apoptotic effect
same,inhibition of SIVMAC 251 infection (qualitative),SIVMAC 251,inhibited
same,susceptibility to pro-apoptotic effects,B16 melanoma,susceptible
